The values that follow come from patent US8216782B2, “PTTG1 as a biomarker for cancer treatment” (Cedars-Sinai Medical Center, priority 2008, dated 2012).

Assay [1] relates to HCT116 PTTG1−/− cells. The experiment in a line: β-galactosidase staining (senescence). Type of assay: cell-based. The note with it: 0.313 uM, 48 hrs. An excerpt:
(§1) Cells were fixed and stained with β-galactosidase staining kit (Sigma).

Assay [2] deals with HCT116 WT cells. The experiment in a line: β-galactosidase staining (senescence). The note with it: 0.313 uM, 48 hrs. Type of assay: cell-based.
Description: as §1

Another assay has as its system WT HCT116 tumors. The experiment in a line: Subcutaneous tumor implant in nude mice. Type of assay: in vivo. To be noted: 50 mg/kg, 17 days. As to the method: Tumor volume was measured twice a week.
Another assay deals with p21. Put plainly: p21 expression after treatment. Type of assay: cell-based. To be noted: WT and PTTG1−/− cells. An excerpt:
FIG. 10 depicts P21 level is higher in PTTG1^−/− cells than WT. P21 induces senescence.

The subject of a further assay is HCT116 cells. The experiment in a line: Apoptosis by Tunel assay and activated caspase 3 levels. Type of assay: cell-based.
The next assay has as its system PTTG1−/− HCT116 tumors. Put plainly: Subcutaneous tumor implant in nude mice. The note with it: 50 mg/kg, 17 days.
The test system of another assay is PTTG1. The experiment in a line: Western blot of PTTG1 phosphorylation after DNA damage. Type of assay: cell-based. To be noted: 24 hours, 5 μM doxorubicin. An excerpt: (§2) FIG. 6 depicts PTTG1 and DNA damage pathway, in accordance with an embodiment of the present invention. […] (B) Aurora Kinase A activity was less inhibited after DNA damage treatment in PTTG1^−/− cells. Lane C1, positive control with Aurora Kinase A; lane C2, negative control without Aurora Kinase A; lane WT, Aurora Kinase A co-immunoprecipitated from HCT116 WT cells after doxorubicin treatment; Lane −/−, Aurora Kinase A immunoprecipitated from HCT116 PTTG1^−/− cells after doxorubicin treatment. Aurora Kinase A activity is higher in PTTG1^−/− than WT HCT116 cells. (C) C, PTTG1 WT plasmid; M3, PTTG1 S165A mutation; M9, PTTG1 S181A mutation. Plasmids were transfected into HCT116 PTTG1^−/− cells and treated with proteosome inhibitor LLnL to enrich phosphorylated PTTG1. Arrow depicts the major band. […] (D) WT, PTTG1 WT plasmid; M9, PTTG1 S181A mutation were transfected into HCT116 PTTG1^−/− and co-immunoprecipitation performed. […] (E) Proposed signaling pathway for PTTG1 action in G2 DNA damage checkpoint.
A general note: A western blot detects proteins with antibodies after separation by electrophoresis.

Another assay has as its system Aurora Kinase A. Put plainly: Kinase activity of Aurora Kinase A immunoprecipitated from treated HCT116 cells. Type of assay: cell-based. The note with it: PTTG1−/− vs WT HCT116 cells.
Description: as §2
Aurora Kinase A activity is inhibited by DNA damage (Krystyniak et al., 2006). The inventors therefore tested Aurora Kinase A activity in HCT116 WT and PTTG1^−/− cells after treatment with doxorubicin. […] Phosphorylated PTTG1 may therefore act with Aurora Kinase A and play a role in the DNA damage-induced G2 checkpoint. […]

The test system of assay [3] is HCT116 PTTG1−/− cells. Put plainly: WST-1 cell proliferation assay. Type of assay: cell-based. As to the method: (§3) FIG. 4 depicts that PTTG1 regulates cell response to Aurora Kinase inhibition, in accordance with an embodiment of the present invention. (A) PTTG1^−/− cell proliferation was attenuated in response to Aurora Kinase A siRNA (mean±S.D., n=3. P<0.05 vs WT). Cells were seeded into 96-well plates, cultured overnight, and then transfected with siRNAs (100 nM). After 72 hours, premixed WST-1 cell proliferation reagent (10 ul) was added to each well. Cells were incubated for a further four hours and shaken thoroughly for one minute before measurement. […] Cells were seeded into 96-well plates, cultured overnight, and then treated with drug as indicated for 48 hours. Viable cells were measured using Premixed WST-1 cell proliferation reagent. (C) Anchorage-dependent colony formation assay was performed as described herein. […] (mean±S.D., n=3. P<0.05 vs WT) (D) Western blot showing that over-expressed PTTG1 rescued PTTG1^−/− sensitivity to Aurora Kinase inhibitor III (12.5 uM) (mean±S.D., n=3. P>0.05 vs WT); PTTG1 knock-down enhanced WT cell sensitivity to Aurora Kinase inhibitor III (12.5 uM) (mean±S.D., n=3. P>0.05 vs PTTG1^−/−). PTTG1^−/−=PTTG1-null or KO cells.
(§4) Cell proliferation was evaluated using WST-1 cell proliferation reagent (obtained from Clontech Laboratories, Inc.; Mountain View, Calif.). Briefly, 90 μl cells were seeded into 96-well plates and cultured overnight, treated with drugs for 48 hours, and 10 μl premixed WST-1 cell proliferation reagent added. Cells were incubated for a further four hours, shaken and absorbance measured at 450 nm using a Victor 3 multiwell plate reader (obtained from PerkinElmer, Inc.; Waltham, Mass.). Cell viability rate was calculated for each well as A450 treated cells/A450 control cells×100% (A450: OD value at 450 nm).

Assay [4] relates to HCT116 WT cells. Put plainly: WST-1 cell proliferation assay. To be noted: Homo sapiens, HCT-116, 48 h, read-out: cells remaining viable. Type of assay: cell-based. As to the method:
as §3, §4
For orientation: Formazan colour is commonly taken as a measure of viable cells.

Assay [5] relates to HCT116 PTTG1−/− cells. The experiment in a line: Anchorage-dependent colony formation assay. Type of assay: cell-based. To be noted: PTTG1−/− colonies, 0.16 μM doxorubicin. As to the method:
(§5) Briefly, 20,000 cells were plated in a six-well culture dish, allowed to attach overnight and treated with depicted drug concentrations. Cells were cultured in standard culture medium containing indicated treatments for twelve days and medium re-freshened every three days. Colonies were stained with 0.5% crystal violet in methanol/acetic acid (3:1) and those composed of >50 cells were counted.

The test system of assay [6] is HCT116 WT cells. Put plainly: Anchorage-dependent colony formation assay. Type of assay: cell-based. To be noted: 0.16 μM doxorubicin. As to the method:
as §5

“Also recorded” adds a separate entry of the source.

Description for PTTG1−/− HCT116 tumors: Tumor volume was measured twice a week. Mice were sacrificed at day 18 and tumors were collected and weighted.

For `O=C(CCCCCCC(=O)Nc1ccccc1)NO` [SAHA, suberoylanilide hydroxamic acid], the “senescent cells (β-galactosidase staining)” value in the assay on HCT116 PTTG1−/− cells [1] is given as 43%; in the assay with HCT116 WT cells [2], 7%. Besides, the tumor growth entry in the assay on WT HCT116 tumors is “did not show any difference between control and treated group; also recorded: had no effect”; with PTTG1−/− HCT116 tumors, “significantly inhibited”. In the assay on p21, the p21 expression result is “enhanced p21 expression”. The apoptosis result with HCT116 cells was “did not cause apoptosis”.

On to `COc1cccc2c1C(=O)c1c(O)c3c(c(O)c1C2=O)C[C@@](O)(C(=O)CO)C[C@@H]3O[C@H]1C[C@H](N)[C@H](O)[C@H](C)O1` [doxorubicin], for which, in the assay with PTTG1, the “phosphorylated PTTG1” value is given as “Increased phosphorylated PTTG1”. In the assay with Aurora Kinase A, the “Aurora Kinase A activity after doxorubicin treatment” value was “less suppressed in PTTG1^−/− than WT cells”. Further, the viability at 1.25 µM worked out at 27% in the assay with HCT116 PTTG1−/− cells [3] (Homo sapiens, HCT-116, 48 h, read-out: cells remaining viable) and 55% with HCT116 WT cells [4]. Further, in the assay on HCT116 PTTG1−/− cells [3] (PTTG1−/− vs WT HCT116 cells), the “sensitivity of PTTG1−/− cell growth versus WT (WST-1)” value is recorded as “more sensitive”. The colonies survived stood at 36% with HCT116 PTTG1−/− cells [5] and 74% in the assay on HCT116 WT cells [6].
